Measurements taken from PubChem BioAssay (NCI).
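Step 1: Grow cells in 96-well plates. Step 2: Expose to compound for 48 hours at 5 concentrations. Step 3: Interpolate endpoints linearly; if unreached, use highest concentration. TGI is the concentration that stops growth completely.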 Where a SMILES comes first, the peptide text is derived from it. The star is where a group is joined. Cbz = O=C(OCc1ccccc1)*; Boc = CC(C)(C)OC(=O)*; OSu = O=C1CCC(=O)N1O*; Bn = c1ccc(C*)cc1

Experiments:
Experiment in all cases: growth of human tumour cells (NCI), 48 h
UACC-257 melanoma = test system: UACC-257 melanoma
SF-268 CNS = test system: SF-268 CNS
HCT-116 colon = test system: HCT-116 colon
ACHN renal = test system: ACHN renal
A498 renal = test system: A498 renal
MALME-3M melanoma = test system: MALME-3M melanoma
UACC-62 melanoma = test system: UACC-62 melanoma
HS 578T breast = test system: HS 578T breast
HL-60(TB) leukemia = test system: HL-60(TB) leukemia
LOX IMVI melanoma = test system: LOX IMVI melanoma
HT29 colon = test system: HT29 colon
SF-295 CNS = test system: SF-295 CNS
IGROV1 ovarian = test system: IGROV1 ovarian
U251 CNS = test system: U251 CNS
SNB-75 CNS = test system: SNB-75 CNS
BT-549 breast = test system: BT-549 breast
HOP-62 NSCLC = test system: HOP-62 NSCLC
SR leukemia = test system: SR leukemia
RXF 393 renal = test system: RXF 393 renal
SW-620 colon = test system: SW-620 colon
SN12C renal = test system: SN12C renal
HCC-2998 colon = test system: HCC-2998 colon
SK-MEL-28 melanoma = test system: SK-MEL-28 melanoma
SK-OV-3 ovarian = test system: SK-OV-3 ovarian
A549 NSCLC = test system: A549 NSCLC
M14 melanoma = test system: M14 melanoma
SK-MEL-5 melanoma = test system: SK-MEL-5 melanoma
MDA-MB-231 breast = test system: MDA-MB-231 breast
OVCAR-8 ovarian = test system: OVCAR-8 ovarian
UO-31 renal = test system: UO-31 renal
DU-145 prostate = test system: DU-145 prostate
MDA-MB-435 = test system: MDA-MB-435
OVCAR-4 ovarian = test system: OVCAR-4 ovarian
NCI-H23 lung = test system: NCI-H23 lung
OVCAR-3 ovarian = test system: OVCAR-3 ovarian
NCI-H226 lung = test system: NCI-H226 lung
TK-10 renal = test system: TK-10 renal
K-562 leukemia = test system: K-562 leukemia
786-0 renal = test system: 786-0 renal
SK-MEL-2 melanoma = test system: SK-MEL-2 melanoma
SF-539 CNS = test system: SF-539 CNS
HCT-15 colon = test system: HCT-15 colon
MCF7 breast = test system: MCF7 breast
CCRF-CEM leukemia = test system: CCRF-CEM leukemia
PC-3 prostate = test system: PC-3 prostate
NCI-H522 lung = test system: NCI-H522 lung
NCI-H460 lung = test system: NCI-H460 lung
HOP-92 NSCLC = test system: HOP-92 NSCLC
MDA-N = test system: MDA-N
SNB-19 CNS = test system: SNB-19 CNS
NCI/ADR-RES ovarian = test system: NCI/ADR-RES ovarian
OVCAR-5 ovarian = test system: OVCAR-5 ovarian
COLO 205 colon = test system: COLO 205 colon
KM12 colon = test system: KM12 colon
RPMI-8226 leukemia = test system: RPMI-8226 leukemia
EKVX NSCLC = test system: EKVX NSCLC
MOLT-4 leukemia = test system: MOLT-4 leukemia

## COc1cc(OC)c2nc(C)c3c(c2c1)NCC3
UACC-257 melanoma
  TGI: 15.9 µM
SF-268 CNS
  TGI: 20 µM
HCT-116 colon
  TGI: 12.9 µM
ACHN renal
  TGI: 26.2 µM
A498 renal
  TGI: 27.7 µM
MALME-3M melanoma
  TGI: 24 µM
UACC-62 melanoma
  TGI: 22.4 µM
HS 578T breast
  TGI: 15.1 µM
HL-60(TB) leukemia
  TGI: 40.7 µM
LOX IMVI melanoma
  TGI: 15 µM
HT29 colon
  TGI: 15.5 µM
SF-295 CNS
  TGI: 28.9 µM
IGROV1 ovarian
  TGI: 34 µM
U251 CNS
  TGI: 33.4 µM
SNB-75 CNS
  TGI: 26.6 µM
BT-549 breast
  TGI: 27.5 µM
HOP-62 NSCLC
  TGI: 21.6 µM
SR leukemia
  TGI: 7.08 µM
RXF 393 renal
  TGI: 18.1 µM
SW-620 colon
  TGI: 19.1 µM
SN12C renal
  TGI: 18.9 µM
HCC-2998 colon
  TGI: 20.3 µM
SK-MEL-28 melanoma
  TGI: 28.5 µM
SK-OV-3 ovarian
  TGI: 49.6 µM
A549 NSCLC
  TGI: 34.1 µM
M14 melanoma
  TGI: 24.1 µM
SK-MEL-5 melanoma
  TGI: 21.6 µM
MDA-MB-231 breast
  TGI: 21.8 µM
OVCAR-8 ovarian
  TGI: 19 µM
UO-31 renal
  TGI: 27.5 µM
DU-145 prostate
  TGI: 59 µM
MDA-MB-435
  TGI: 21.6 µM
OVCAR-4 ovarian
  TGI: 15.6 µM
NCI-H23 lung
  TGI: 19.9 µM
OVCAR-3 ovarian
  TGI: 33.4 µM
NCI-H226 lung
  TGI: 19 µM
TK-10 renal
  TGI: 35.7 µM
K-562 leukemia
  TGI: 27.7 µM
786-0 renal
  TGI: 17.2 µM
SK-MEL-2 melanoma
  TGI: 21.4 µM
SF-539 CNS
  TGI: 16.4 µM
HCT-15 colon
  TGI: 25.9 µM
MCF7 breast
  TGI: 17.8 µM
CCRF-CEM leukemia
  TGI: 31.3 µM
PC-3 prostate
  TGI: 20 µM
NCI-H522 lung
  TGI: 19.6 µM
NCI-H460 lung
  TGI: 12 µM
HOP-92 NSCLC
  TGI: 30.9 µM
MDA-N
  TGI: 21.1 µM
SNB-19 CNS
  TGI: 40.7 µM
NCI/ADR-RES ovarian
  TGI: 71.2 µM
OVCAR-5 ovarian
  TGI: 25.6 µM
COLO 205 colon
  TGI: 17.1 µM

## CC(C)(C)OC(=O)NC(Cc1ccc(OCc2ccccc2)cc1)C(=O)NC(CCCCNC(=O)OCc1ccccc1)C(=O)ON1C(=O)CCC1=O (configuration not stated) (Boc-Tyr(Bn)-Lys(Cbz)-OSu; configuration not given here)
UACC-257 melanoma
  TGI: > 100 µM
KM12 colon
  TGI: 65.5 µM
HCT-116 colon
  TGI: 41 µM
ACHN renal
  TGI: 42.6 µM
A498 renal
  TGI: > 100 µM
MALME-3M melanoma
  TGI: 46.9 µM
UACC-62 melanoma
  TGI: 33.2 µM
HS 578T breast
  TGI: 67.1 µM
HL-60(TB) leukemia
  TGI: 49.3 µM
HT29 colon
  TGI: 80.2 µM
IGROV1 ovarian
  TGI: 33.1 µM
U251 CNS
  TGI: 32.2 µM
SNB-75 CNS
  TGI: 54.9 µM
BT-549 breast
  TGI: 43.3 µM
HOP-62 NSCLC
  TGI: 42.8 µM
SR leukemia
  TGI: 54.9 µM
RXF 393 renal
  TGI: 55.3 µM
SW-620 colon
  TGI: 41.1 µM
SN12C renal
  TGI: 32.9 µM
HCC-2998 colon
  TGI: 32 µM
SK-MEL-28 melanoma
  TGI: 30.8 µM
A549 NSCLC
  TGI: > 100 µM
M14 melanoma
  TGI: 46.2 µM
SK-MEL-5 melanoma
  TGI: 48 µM
MDA-MB-231 breast
  TGI: 81.1 µM
OVCAR-8 ovarian
  TGI: 51.9 µM
UO-31 renal
  TGI: 76.3 µM
NCI-H23 lung
  TGI: 34.4 µM
NCI-H226 lung
  TGI: 99.6 µM
TK-10 renal
  TGI: > 100 µM
K-562 leukemia
  TGI: 73.6 µM
786-0 renal
  TGI: 35.7 µM
SK-MEL-2 melanoma
  TGI: 33.8 µM
RPMI-8226 leukemia
  TGI: 45.3 µM
HCT-15 colon
  TGI: 32 µM
MCF7 breast
  TGI: 44.3 µM
PC-3 prostate
  TGI: 57.7 µM
EKVX NSCLC
  TGI: > 100 µM
MOLT-4 leukemia
  TGI: 48.2 µM
NCI-H460 lung
  TGI: 50.8 µM
MDA-N
  TGI: 29.9 µM
SNB-19 CNS
  TGI: 35.3 µM
OVCAR-5 ovarian
  TGI: 76.7 µM
COLO 205 colon
  TGI: 72.1 µM
